The structures appear in SMILES notation.

This note sets out measurements from patent US11339171B2, “MDM2 inhibitors” (Gan & Lee Pharmaceuticals, priority 2017, dated 2022).

The target of this assay is T1, MDM2 (Homo sapiens, UniProt Q00987).
T1 construct: made in house
Kind of assay: Inhibition test of MDM2-P53 (GST-MDM2, Biotin-P53, Anti-GST-Tb, SA-XL665). In kind it is binding. To be noted: for inhibitory effect on MDM2 compared with positive control compound HDM201: labels are Example numbers, the compounds with S-configuration are meant. On the procedure: Experimental purpose: To determine the inhibitory activities of the compounds of the present invention on MDM2.
The present experiment uses the following assay methods/instruments/reagents:
Buffer: 1×PBS+0.1% BSA+5 mM DTT; MDM2 Buffer: Buffer+1 mM AEBSF
GST-MDM2: The final concentration is 4 nM, and it is required to formulate a 20 nM (5×) solution. A mother liquor is diluted by 3500 folds, wherein the mother liquor is 10-fold diluted first, and then 350-fold diluted.
Anti-GST-Tb: The final concentration is 2×, and a mother liquor is diluted by 50 folds.
MIX: GST-MDM2, Biotin-P53, SA-XL665 and Anti-GST-Tb were mixed according to a ratio of 4:4:5:5.
Sample: Preparation of a sample (10 mM in DMSO) solution: a. 3 μL sample+7 μL DMSO+20 μL DMSO were formulated to give an initial concentration of 1 mM and mixed well; b. in plate 1, twelve 5-fold serial dilutions (sequentially prepared by adding 10 μL of the last sample to 40 μL DMSO) were prepared and mixed well, individually; c. plate 2 was taken, 45 μL of Buffer was added to each well, and 5 μL of dilution at each concentration was taken from plate 1 and added to the corresponding well in plate 2 (the concentration in well 1 was 100 μM), and mixed well.
1. 18 μL of MIX was added to a 384-well plate, and centrifugation was performed at 4500 rpm for 5 min.
2. 2 μL of sample was added correspondingly to each well, the resultant was centrifuged at 25° C. and 4500 rpm for 5 min, and shaked at 25° C. for 90 min on a shaker.
Readings were obtained from the Microplate reader, and data was processed by Graphpad Prism 6.0.

T1 sequence (Q00987 whole entry): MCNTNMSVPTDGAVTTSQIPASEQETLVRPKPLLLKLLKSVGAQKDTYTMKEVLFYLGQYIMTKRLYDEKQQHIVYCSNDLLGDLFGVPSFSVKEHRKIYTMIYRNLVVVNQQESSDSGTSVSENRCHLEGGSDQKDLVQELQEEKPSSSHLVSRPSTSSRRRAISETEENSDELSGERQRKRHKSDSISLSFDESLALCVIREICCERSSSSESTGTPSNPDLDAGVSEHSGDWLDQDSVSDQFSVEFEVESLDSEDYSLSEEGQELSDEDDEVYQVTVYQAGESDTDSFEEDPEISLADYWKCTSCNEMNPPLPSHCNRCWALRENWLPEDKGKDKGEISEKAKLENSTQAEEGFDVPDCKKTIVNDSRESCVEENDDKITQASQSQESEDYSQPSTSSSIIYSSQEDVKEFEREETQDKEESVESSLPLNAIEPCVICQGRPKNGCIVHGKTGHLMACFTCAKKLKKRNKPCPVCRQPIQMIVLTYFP

`COc1nc(N(C)C)ncc1-c1nc2c(n1C(C)C)[C@]1(C(=O)Nc3cc(Cl)ccc31)N(c1cc(Cl)ccc1C)C2=O` [Example R-82, (R)-6-chloro-5′-(5-chloro-2-methylphenyl)-2′-(2-(dimethylamino)-4-methoxypyrimidin-5-yl)-3′-isopropyl-3′H-spiro[dihydroindole-3,4′-pyrrolo[3,4-d]imidazole]-2,6′(5′H)-dione] had an IC50 of 394 nM.
On the same count and under the same terms, to `CNC(=O)c1ccc(-c2nc3c(n2C(C)C)[C@]2(C(=O)Nc4cc(Cl)ccc42)N(c2cc(Cl)ccc2C)C3=O)c(OC)c1` [Example R-54, (R)-4-(6-chloro-5′-(5-chloro-2-methylphenyl)-3′-isopropyl-2,6′-dioxo-5′,6′-dihydro-3′H-spiro[dihydroindole-3,4′-pyrrolo[3,4-d]imidazole]-2′-yl)-3-methoxy-N-methylbenzamide] belongs 1960 nM; to `COc1cc(OC)c(-c2nc3c(n2C(C)C)[C@@]2(C(=O)Nc4cc(Cl)ccc42)N(c2ccc(C(N)=O)c(Cl)c2)C3=O)cn1` [Example S-65, (S)-2-chloro-4-(6-chloro-2′-(4,6-dimethoxypyridin-3-yl)-3′-isopropyl-2,6′-dioxo-3′,6′-dihydro-5′H-spiro[dihydroindole-3,4′-pyrrolo[3,4-d]imidazole]-5′-yl)benzamide], 4.04 nM.
As to `COc1cc(OC(C)C)ncc1-c1nc2c(n1C(C)C)C1(C(=O)Nc3cc(Cl)ccc31)N(c1cccc(Cl)c1)C2=O` (stereo not drawn) [Example 95, 6-chloro-5′-(3-chlorophenyl)-2′-(6-isopropoxy-4-methoxypyridin-3-yl)-3′-isopropyl-3′H-spiro[dihydroindole-3,4′-pyrrolo[3,4-d]imidazole]-2,6′(5′H)-dione], the “inhibitory effect on MDM2 compared with positive control compound HDM201” value is reported as “better”.
The compound `CCOc1ccc(-c2nc3c(n2C(C)C)[C@]2(C(=O)Nc4cc(Cl)ccc42)N(c2cc(Cl)ccc2C)C3=O)c(OC)c1` [Example R-88, (R)-6-chloro-5′-(5-chloro-2-methylphenyl)-2′-(4-ethoxy-2-methoxyphenyl)-3′-isopropyl-3′H-spiro[dihydroindole-3,4′-pyrrolo[3,4-d]imidazole]-2,6′(5′H)-dione] gave an IC50 of 399 nM.
Still for that read-out and setting: in the case of `COc1ncc(-c2nc3c(n2C(C)C)[C@]2(C(=O)Nc4cc(Cl)ccc42)N(c2ccc(OC(F)(F)F)c(Cl)c2)C3=O)c(OC)n1` [Example R-161, (R)-6-chloro-5′-(3-chloro-4-(trifluoromethoxy)phenyl)-2′-(2,4-dimethoxypyrimidin-5-yl)-3′-isopropyl-3′H-spiro[dihydroindole-3,4′-pyrrolo[3,4-d]imidazole]-2,6′(5′H)-dione] it was 126 nM.
Same read-out and setting: to `CCOc1ccc(-c2nc3c(n2C(C)C)[C@]2(C(=O)Nc4cc(Cl)ccc42)N(c2cc(Cl)ccc2F)C3=O)c(OC)c1` [Example R-94, (R)-6-chloro-5′-(5-chloro-2-fluorophenyl)-2′-(4-ethoxy-2-methoxyphenyl)-3′-isopropyl-3′H-spiro[dihydroindole-3,4′-pyrrolo[3,4-d]imidazole]-2,6′(5′H)-dione] belongs 840 nM.
As to `COc1cc(N)ccc1-c1nc2c(n1C(C)C)C1(C(=O)Nc3cc(Cl)ccc31)N(c1cc(F)cc(Cl)c1)C2=O` (stereo not drawn) [Example 67, 2′-(4-amino-2-methoxyphenyl)-6-chloro-5′-(3-chloro-5-fluorophenyl)-3′-isopropyl-3′H-spiro[dihydroindole-3,4′-pyrrolo[3,4-d]imidazole]-2,6′(5′H)-dione], the “inhibitory effect on MDM2 compared with positive control compound HDM201” value is given as “better”.
The same measure, in the same setting: in the case of `COc1nc(N(C)C)ncc1-c1nc2c(n1C(C)C)C1(C(=O)Nc3cc(Cl)ccc31)N(c1cc(Cl)cnc1C)C2=O` (stereo not drawn) [Example 135, 6-chloro-5′-(5-chloro-2-methylpyridin-3-yl)-2′-(2-(dimethylamino)-4-methoxypyrimidin-5-yl)-3′-isopropyl-3′H-spiro[dihydroindole-3,4′-pyrrolo[3,4-d]imidazole]-2,6′(5′H)-dione] it was “better”.
Still for that read-out and setting: to `COc1cc(OC(F)F)ncc1-c1nc2c(n1C(C)C)C1(C(=O)Nc3cc(Cl)ccc31)N(c1cc(Cl)ccc1C)C2=O` (stereo not drawn) [Example 150, 6-chloro-5′-(5-chloro-2-methylphenyl)-2′-(6-(difluoromethoxy)-4-methoxypyridin-3-yl)-3′-isopropyl-3′H-spiro[dihydroindole-3,4′-pyrrolo[3,4-d]imidazole]-2,6′(5′H)-dione] belongs “better”.
With `COc1cc(OC)c(-c2nc3c(n2C(C)C)[C@]2(C(=O)Nc4cc(Cl)ccc42)N(c2cc(Cl)cnc2C)C3=O)cn1` [Example R-131, (R)-6-chloro-5′-(5-chloro-2-methylpyridin-3-yl)-2′-(4,6-dimethoxypyridin-3-yl)-3′-isopropyl-3′H-spiro[dihydroindole-3,4′-pyrrolo[3,4-d]imidazole]-2,6′(5′H)-dione], the IC50 worked out at 120 nM.
The same measure, in the same setting: to `COc1cc(C#N)ccc1-c1nc2c(n1C(C)C)[C@]1(C(=O)Nc3cc(Cl)ccc31)N(c1cccc(Cl)c1)C2=O` [Example R-128, (R)-4-(6-chloro-5′-(3-chlorophenyl)-3′-isopropyl-2,6′-dioxo-5′,6′-dihydro-3′H-spiro[dihydroindole-3,4′-pyrrolo[3,4-d]imidazole]-2′-yl)-3-methoxybenzonitrile] belongs 612 nM; to `COc1ncc(-c2nc3c(n2C(C)C)[C@]2(C(=O)Nc4cc(Cl)ccc42)N(c2ccc(C(N)=O)c(Cl)c2)C3=O)c(OC)n1` [Example R-60, (R)-2-chloro-4-(6-chloro-2′-(2,4-dimethoxypyrimidin-5-yl)-3′-isopropyl-2,6′-dioxo-3′,6′-dihydro-5′H-spiro[dihydroindole-3,4′-pyrrolo[3,4-d]imidazole]-5′-yl)benzamide], 1070 nM.
For the compound `COc1ccc(-c2nc3c(n2C(C)C)C2(C(=O)Nc4cc(Cl)ccc42)N(c2cc(Cl)c(=O)n(C)c2)C3=O)c(OC)c1` (stereo not drawn) [Example 52, 6-chloro-5′-(5-chloro-1-methyl-6-oxo-1,6-dihydropyridin-3-yl)-2′-(2,4-dimethoxyphenyl)-3′-isopropyl-3′H-spiro[dihydroindole-3,4′-pyrrolo[3,4-d]imidazole]-2,6′(5′H)-dione], the “inhibitory effect on MDM2 compared with positive control compound HDM201” value is given as “better”.
`COc1ncc(-c2nc3c(n2C(C)C)[C@@]2(C(=O)Nc4cc(Cl)ccc42)N(c2cc(C)ccc2C)C3=O)c(OC)n1` [Example S-56, (S)-6-chloro-2′-(2,4-dimethoxypyrimidin-5-yl)-5′-(2,5-dimethylphenyl)-3′-isopropyl-3′H-spiro[dihydroindole-3,4′-pyrrolo[3,4-d]imidazole]-2,6′(5′H)-dione] yielded a half-maximal inhibitory concentration (IC50) of 5.19 nM.
The compound `COc1cc(F)c(-c2nc3c(n2C(C)C)[C@]2(C(=O)Nc4cc(Cl)ccc42)N(c2cc(Cl)ccc2C)C3=O)c(OC)c1` [Example R-130, (R)-6-chloro-5′-(5-chloro-2-methylphenyl)-2′-(2-fluoro-4,6-dimethoxyphenyl)-3′-isopropyl-3′H-spiro[dihydroindole-3,4′-pyrrolo[3,4-d]imidazole]-2,6′(5′H)-dione] had an IC50 of 568 nM.
`COc1ncc(-c2nc3c(n2C(C)C)C2(C(=O)Nc4cc(Cl)ccc42)N(c2cc(Cl)ccc2F)C3=O)c(OC)n1` (stereo not drawn) [Example 44, 6-chloro-5′-(5-chloro-2-fluorophenyl)-2′-(2,4-dimethoxypyrimidin-5-yl)-3′-isopropyl-3′H-spiro[dihydroindole-3,4′-pyrrolo[3,4-d]imidazole]-2,6′(5′H)-dione]: the “inhibitory effect on MDM2 compared with positive control compound HDM201” value is on record as “better”.
Compound `COc1ncc(-c2nc3c(n2C(C)C)[C@@]2(C(=O)Nc4cc(Cl)ccc42)N(c2ccc(OC)c(Cl)c2)C3=O)c(OC)n1` [Example S-48, (S)-6-chloro-5′-(3-chloro-4-methoxyphenyl)-2′-(2,4-dimethoxypyrimidin-5-yl)-3′-isopropyl-3′H-spiro[dihydroindole-3,4′-pyrrolo[3,4-d]imidazole]-2,6′(5′H)-dione] yielded an IC50 of 1.46 nM.
On the same count and under the same terms, in the case of `COc1ccc(-c2nc3c(n2C(C)C)[C@]2(C(=O)Nc4cc(Cl)ccc42)N(c2cc(Cl)ccc2C)C3=O)cc1` [Example R-64, (R)-6-chloro-5′-(5-chloro-2-methylphenyl)-3′-isopropyl-2′-(4-methoxyphenyl)-3′H-spiro[dihydroindole-3,4′-pyrrolo[3,4-d]imidazole]-2,6′(5′H)-dione] it was 1020 nM; in that of `COc1nc(C2CC2)ncc1-c1nc2c(n1C(C)C)[C@]1(C(=O)Nc3cc(Cl)ccc31)N(c1cc(Cl)ccc1C)C2=O` [Example R-121, (R)-6-chloro-5′-(5-chloro-2-methylphenyl)-2′-(2-cyclopropyl-4-methoxypyrimidin-5-yl)-3′-isopropyl-3′H-spiro[dihydroindole-3,4′-pyrrolo[3,4-d]imidazole]-2,6′ (5′H)-dione], 300 nM; in that of `CCOc1ncc(-c2nc3c(n2C(C)C)[C@]2(C(=O)Nc4cc(Cl)ccc42)N(c2cc(Cl)cnc2C)C3=O)c(OC)n1` [Example R-134, (R)-6-chloro-5′-(5-chloro-2-methylpyridin-3-yl)-2′-(2-ethoxy-4-methoxypyrimidin-5-yl)-3′-isopropyl-3′H-spiro[dihydroindole-3,4′-pyrrolo[3,4-d]imidazole]-2,6′(5′H)-dione], 322 nM.

What is called IC50 is the midpoint of a concentration-inhibition curve. Higher therefore signals a need for much substance.
